Experimental data published in patent US20040116501A1, “Treatment of nonallergic rhinitis by selective phosphodiesterase 4 inhibitors” (priority 2002, published 2004).
Where two headings read alike, the source gives them in different places. Marks after values point to notes of the source that are not given here.

System: acetic acid-induced vascular permeability of the rat nasal mucosa
Experiment: Acetic acid-induced vascular permeability in Sprague-Dawley rats (nonallergic rhinitis model), Evans Blue in nasal perfusate
Format: in vivo
Details: for inhibition of the vascular permeability of the nasal mucosa (in words): test range from 0.1 to 10 μmol/l
Method: Effect on Acetic Acid-Induced Vascular Permeability in Sprague-Dawley Rats (Nonallergic Rhinitis Model)
Male Sprague-Dawley rats weighing 280-320 g are anesthetized on the day of the experiment by i.p. injection of 0.9-1 ml/animal of a 2.5% strength thiopental sodium solution. The trachea is then exposed below the epiglottis and incised at two points. A polyethylene catheter is pushed into the lower opening in the trachea in the direction of the lung (orthograde) and secured by tying with twine in order to maintain breathing. A second polyethylene catheter with LUER lock connector (cut from Original-Perfusor® line) for retrograde perfusion of the nasal cavity is introduced into the upper opening and advanced retrogradely as far as the inner opening of the choanae so that the solution can flow through the nasal cavity. 8 animals in total are placed individually on their backs on specially fabricated plastic tables in such a way that the perfusion fluid can drip out of the nostrils and be collected in the fraction collector.
During this, half of the head looks with the nose beyond the edge of the table.
A polyethylene infusion line is connected to the LUER lock connector of the catheter which has been secured retrogradely in each animal and is immersed in the container with the prepared perfusion fluid via a roller pump. The roller pump is adjusted to a constant delivery of 0.5 ml of fluid/min. A red lamp is switched on over the animals for warming.
Initial perfusion of the nasal cavity with PBS for 30 min serves to wash out the nasal mucus. During this, the fraction collector is switched on and the perfusate dripping out of the nostrils is collected in 15 min fractions (2 fractions). The second fraction is used as normal value for the experiment.
The test substances are administered topically before administration of acetic acid. They are added to the perfusion medium (PBS, Dulbecco) in molar concentrations. 4.6 mg of AWD 12-281 or other test substances such as AWD 12-322 or AWD 12-298 are diluted in accordance with their molecular weight (4.6 mg of AWD 12-322 or 5.2 mg of AWD 12-298) with 1 ml of 1N NaOH and then made up to 10 ml with double-distilled H2O. […] These solutions are perfused through the noses using the roller pump for 30 min, and the 2 samples obtained from the fraction collector are discarded. The roller pump is then switched off.
After perfusion with the substance, the plasma marker Evans Blue (1% strength solution in PBS) is injected, 1 ml per animal, into the jugular vein and then 0.1% strength acetic acid solution is forced through tubings and roller pumps into the nasal cavity until 2-3 drops of acetic acid solution drip from the conchae. The roller pumps are then switched off. The acetic acid solution is left in the nasal cavity for 30 minutes in order to ensure complete permeation of the nasal mucosa.
After an exposure time of 30 minutes, the roller pumps and the fraction collector are switched on again, and the 0.1% strength acetic acid solution in PBS is perfused retrogradely (with a constant delivery of 0.5 ml liquid/min) through the nasal cavity for 60 min. During this, the perfusate dripping out of the nostrils is continuously received in glass tubes and collected in 4 periods of 15 min. Aliquots of the samples including the control samples are placed on microtiter plates and measured using a Digiscan photometer at a wavelength of 620 nm relative to the control sample (blank). […] The Evans Blue content in 4 collected fractions, each selected over 15 minutes, of the perfusate flowing out in μg/ml is calculated by formula 1: [formula]
tn time interval (15 min)
yn Evans Blue content per time interval (μg/l per 15 min)
The means and standard deviations (x±SD) of the AUC′ for individual animals in a control group or a group of animals pretreated with substance are calculated. The inhibition of the vascular permeability is stated in percent.

[1] = acetic acid-induced rhinitis in rats
[2] = test substance concentration 0.1 μmol/l, single 30-minute nasal perfusion before 0.1% acetic acid, rat
[3] = test substance concentration 1 μmol/l, single 30-minute nasal perfusion before 0.1% acetic acid, rat
[4] = test substance concentration 3 μmol/l, single 30-minute nasal perfusion before 0.1% acetic acid, rat
[5] = test substance concentration 10 μmol/l, single 30-minute nasal perfusion before 0.1% acetic acid, rat
[6] = test substance concentration 1 μmol/l, single 30-minute nasal perfusion before 0.1% acetic acid, rat, vs vehicle control
[7] = test substance concentration 3 μmol/l, single 30-minute nasal perfusion before 0.1% acetic acid, rat, vs vehicle control
[8] = test substance concentration 10 μmol/l, single 30-minute nasal perfusion before 0.1% acetic acid, rat, vs vehicle control

| SMILES | inhibition of the vascular permeability of the nasal mucosa (in words) [1] | Evans Blue content (μg/ml) in the perfusate AUC′ x ± SD [2] [µg/mL] | Evans Blue content (μg/ml) in the perfusate AUC′ x ± SD [3] [µg/mL] | Evans Blue content (μg/ml) in the perfusate AUC′ x ± SD [4] [µg/mL] | Evans Blue content (μg/ml) in the perfusate AUC′ x ± SD [5] [µg/mL] | % Inhibition [6] | % Inhibition [7] | % Inhibition [8] | other results |
| --- | --- | --- | --- | --- | --- | --- | --- | --- | --- |
| O=C(Nc1c(Cl)cncc1Cl)C(=O)c1cn(Cc2ccc(F)cc2)c2ccc(O)cc12 [AWD 12-281, N-(3,5-dichloropyrid-4-yl)-[1-(4-fluorobenzyl)-5-hydroxyindol-3-yl]glyoxylamide] | concentration-dependent inhibition | 10.88 ± 8.45 | 5.96 ± 7.97 | 6.41 ± 5.81 | 3.68 ± 4.40 | – | – | – | inhibition at 0.1 µM (0.5 h, test substance concentration 0.1 μmol/l, single 30-minute nasal perfusion before 0.1% acetic acid, rat, vs vehicle control, read-out: % Inhibition): 29%; inhibition at 1 µM (0.5 h, test substance concentration 1 μmol/l, single 30-minute nasal perfusion before 0.1% acetic acid, rat, vs vehicle control, read-out: % Inhibition): 61%; inhibition at 3 µM (0.5 h, test substance concentration 3 μmol/l, single 30-minute nasal perfusion before 0.1% acetic acid, rat, vs vehicle control): 58%; inhibition at 10 µM (0.5 h, test substance concentration 10 μmol/l, single 30-minute nasal perfusion before 0.1% acetic acid, rat, vs vehicle control, read-out: % Inhibition): 76% |
| CCOC(C)=O.O=C(Nc1c(Cl)cncc1Cl)C(=O)c1cn(Cc2c(F)cccc2F)c2ccc(O)cc12.O=C(Nc1c(Cl)cncc1Cl)C(=O)c1cn(Cc2c(F)cccc2F)c2ccc(O)cc12 [AWD 12-298, N-(3,5-dichloropyrid-4-yl)-[1-(2,6-difluorobenzyl)-5-hydroxyindol-3-yl]glyoxylamide semi-ethyl acetate] | – | – | 17.72 ± 9.31 | 8.43 ± 5.56 | 6.03 ± 7.11 | 0% | 49% | 64* % | activity in the model of acetic acid-induced rhinitis (in words) (concentration range from 3 to 10 μmol/l, rats): concentration-dependent activity |
| O=C(Nc1c(Cl)cncc1Cl)C(=O)c1cn(Cc2ccc(O)cc2)c2ccc(O)cc12 [AWD 12-322, N-(3,5-dichloropyrid-4-yl)-2-[5-hydroxy-1-(4-hydroxybenzyl)-1H-indol-3-yl]glyoxylamide] | concentration-dependent inhibition | 13.77 ± 6.65 | 7.25 ± 6.77 | – | 2.62 ± 3.44 | – | – | – | inhibition at 0.1 µM (Rattus norvegicus, 0.5 h): 5%; inhibition at 1 µM (Rattus norvegicus, 0.5 h): 50%; inhibition at 10 µM (Rattus norvegicus, 0.5 h): 82% |
| C[C@H]1C[C@H]2[C@@H]3CCC4=CC(=O)C=C[C@]4(C)[C@@]3(Cl)[C@@H](O)C[C@]2(C)[C@@]1(O)C(=O)CO [Beclomethasone, beclomethasone, reference compound] | – | 4.93 ± 3.19 | 0.93 ± 1.80 | 5.51 ± 7.12 | 4.86 ± 8.08 | 95** % | 68* % | 81** % | effect against the vascular plasma permeability induced by acetic acid in the nasal mucosa (in words) (rat rhinitis model, summary statement): dose-dependent effect; activity compared with the PDE4 inhibitors (in words) (standard therapeutic agents, acetic acid-induced rhinitis in rats): approximately the same activity; Evans Blue content (μg/ml) in the perfusate AUC′ x ± SD (test substance concentration 0.01 μmol/l, single 30-minute nasal perfusion before 0.1% acetic acid, rat): 10.70 ± 2.38 µg/mL; % Inhibition (test substance concentration 0.01 μmol/l, single 30-minute nasal perfusion before 0.1% acetic acid, rat, vs vehicle control): 38%; % Inhibition (test substance concentration 0.1 μmol/l, single 30-minute nasal perfusion before 0.1% acetic acid, rat, vs vehicle control): 72* % |
